Results published in PMC8512560, “Design, Synthesis, and Antipoliferative Activities of Novel Substituted Imidazole-Thione Linked Benzotriazole Derivatives” (Molecules, 2021).
Values joined by “and” are separate entries in the source; they are usually repeats but may differ in a detail not shown here. Equal entries are not always repeated.

Key:
[1] = test system: MCF-7 human breast cancer cell line; assay: MTT viability assay, MCF-7; format: cell-based; details: Homo sapiens, MCF7, 72 h, mean ± SD of three independent experiments, read-out: Antiproliferative Activities IC50, MCF-7
Method: (§1) All the human tumour cell lines MCF-7, HL-60, HCT-116, and HUVEC were cultured in Dulbecco’s Modified Eagle’s Medium (DMEM) with 10% fetal bovine serum, 2 mM L-glutamine and 100 µg/mL penicillin/streptomycin. Cells were maintained at 37 °C in 5% CO2 in a humidified incubator. All cells were sub-cultured three times/week by trypsinization using TrypLE Express (1X).
(§2) The Benzotriazole compounds were evaluated for antiproliferative effect using the MTT viability assay of various cancer cell lines (MCF-7, HCT-116 and HL-60) and the normal human umbilical vein endothelial cell line (HUVEC) to calculate the relative IC50 values for each compound. Cells were seeded in triplicate in 96-well plates at a density of 10 × 10^3 cells/mL in a total volume of 200 µL per well. 0.1% of DMSO was used as a vehicle control. After this time, they were treated with 2 µL test compound which had been pre-prepared as stock solutions in ethanol to furnish the concentration range of study, 10 nM to 100 µM, and re-incubated for a further 72 h. The culture medium was then removed, and the cells washed with 100 µL phosphate buffered saline (PBS) and 50 µL MTT added, to reach a final concentration of 1 mg/mL MTT added. Cells were incubated for 2 h in darkness at 37 °C. At this point solubilisation was begun through the addition of […] DMSO and the cells maintained at room temperature in darkness for 20 min to ensure thorough colour diffusion before reading the absorbance. Plates were incubated for 72 h at 37 °C + 5% CO2. The MTT (5 mg/mL in PBS) was added and incubated for another 4 h, and the optical density was detected with a microplate reader at 570 nm. Results were expressed as percentage viability relative to vehicle control (100%). Dose response curves were plotted and IC50 values (concentration of drug resulting in 50% reduction in cell survival) were obtained using the commercial software package Prism (GraphPad Software, Inc., La Jolla, CA, USA). All the experiments were repeated in at least three independent experiments.

[2] = test system: HL-60 human leukemia cancer cell line; assay: MTT viability assay, HL-60; format: cell-based; details: Homo sapiens, HL-60, 72 h, mean ± SD of three independent experiments, read-out: Antiproliferative Activities IC50, HL-60
Method: as §1, §2

[3] = test system: HCT-116 human colon cancer cell line; assay: MTT viability assay, HCT-116; format: cell-based; details: Homo sapiens, HCT-116, 72 h, mean ± SD of three independent experiments, read-out: Antiproliferative Activities IC50, HCT-116
Method: as §1, §2

[4] = test system: HUVEC human umbilical vein endothelial cell line; assay: MTT viability assay, normal HUVEC cells; format: cell-based; details: 72 h, mean ± SD of three independent experiments
Method: as §1, §2

bovine brain tubulin = assay: Tubulin polymerization assay (turbidimetric, kit BK006); format: biochemical; details: read-out: Anti-Tubulin Activity IC50 ± SD (inhibition of tubulin polymerization)
Method: The assembly of purified bovine tubulin was monitored using a kit, BK006, purchased from Cytoskeleton Inc., (Denver, CO, USA). The assay was carried out in accordance with the manufacturer’s instructions using the standard assay conditions. Briefly, purified ([…]) in a buffer consisting of 80 mM PIPES (pH 6.9), 0.5 mM EGTA, 2 mM MgCl2, 1 mM GTP and 10% glycerol was incubated at 37 °C in the presence of either vehicle (2% (v/v) ddH2O), CA-4, benzotriazole compounds. Light was scattered proportionally to the concentration of polymerized microtubules in the assay. Therefore, the tubulin assembly was monitored turbidimetrically at 340 nm in a Spectramax 340 PC spectrophotometer (Molecular Devices, Sunnyvale, CA, USA). The concentration that inhibits tubulin polymerization by 50% (IC50) was determined using area under the curve (AUC). The AUC of the untreated controls were considered as 100% polymerization. The IC50 value for each compound was computed using GraphPad Prism Software.

[5] = test system: colchicine binding site of tubulin; assay: Colchicine site competitive binding assay ([3H]colchicine); details: tubulin and colchicine at 1 and 5 µM
Method: The affinity of Benzotriazole compounds to colchicine binding site was determined using a Colchicine Site Competitive Assay kit CytoDYNAMIX Screen15 (Cytoskeleton, Inc., Denver, CO, USA) using the standard protocol of the manufacturer to determine Ki values (μM). Biotin-labelled tubulin ([…]) and the test compounds (positive control colchicine, negative control vinblastine, G-1, fluorescent G-1, or 2-ME) in a 96-well plate (final volume: 100 μL). After incubating for 2 h at 37 °C with gentle shaking, streptavidin-labelled yttrium SPA beads (80 μg in 20 μL reaction buffer, PerkinElmer, Waltham, MA) were added to each well and incubated for 30 min at 4 °C. The plates were then read on a scintillation counter (Packard Instrument, Topcount Microplate Reader) and the percentage of inhibition was calculated.

HL-60 cells [6] = assay: Cell cycle analysis by PI flow cytometry; format: cell-based, human; details: 50 nM
Method: HL-60 cells were seeded at a density of 1 × 10^5 cells/well in 6-well plates and treated with CA-4 and compound BI9 (1 µM) for 48 and 72 h. The cells were collected by trypsinization and centrifuged at 800× g for 15 min. Cells were washed twice with ice-cold PBS and fixed in ice-cold 70% ethanol overnight at −20 °C. Fixed cells were centrifuged at 800× g for 15 min and stained with 50 μg/mL of PI, containing 50 μg/mL of DNase-free RNase A, at 37 °C for 30 min. The DNA content of cells (10,000 cells/experimental group) was analysed by flow cytometer at 488 nm using a FACSCalibur flow cytometer (BD Biosciences, San Jose, CA, USA) and all data were recorded and analysed using the CellQuest Software (Becton-Dickinson).

HL-60 cells [7] = assay: Annexin V/PI apoptotic assay by flow cytometry; format: cell-based, human; details: BI9 1 µM, CA-4 concentration not given, control 1.6%
Method: Apoptotic cell death was detected by flow cytometry using Annexin V and propidium iodide (PI). HL-60 Cells were seeded in 6 well plated at density of 1 × 10^5 cells/mL and treated with vehicle (0.1% (v/v) EtOH), positive control (CA-4) or compound BI9 (1 µM) for 48 and 72 h. Cells were then harvested and prepared for flow cytometric analysis. Cells were washed in 1X binding buffer ([…] binding buffer: 0.1M HEPES, pH 7.4; 1.4 M NaCl; 25 mM CaCl2 diluted in dH2O) and incubated in the dark for 30 min on ice in Annexin V-containing binding buffer [1:100]. Cells were then washed once in binding buffer and then re-suspended in PI-containing binding buffer [1:1000]. Samples were analysed immediately using the BD accuri flow cytometer and prism software for analysis the data. Four populations are produced during the assay Annexin V and PI negative (Q4, healthy cells), Annexin V positive and PI negative (Q3, early apoptosis), Annexin V and PI positive (Q2, late apoptosis) and Annexin V negative and PI positive (Q1, necrosis).

COc1ccc(/C=C\c2cc(OC)c(OC)c(OC)c2)cc1O [CA-4, Combretastatin A-4, reference compound]
IC50 [1]: 580 ± 20 nM
IC50 [2]: 770 ± 50 nM
IC50 [3]: 240 ± 20 nM
IC50 [4]: 13600 ± 650 nM
Colchicine Binding % ± SD (inhibition of [3H]colchicine binding), 1 µM Drug ([5]; 1 µM drug): 64% and 64.23 ± 0.9%
Colchicine Binding % ± SD (inhibition of [3H]colchicine binding), 5 µM Drug ([5]; 5 µM drug): 85% and 85.63 ± 2%
Proportion of HL-60 cells in G2/M phase (HL-60 cells [6]; 48 h): 40.1%
Proportion of HL-60 cells in G2/M phase (HL-60 cells [6]; 72 h): 46.6%
Total fraction of early and late apoptotic cells (Annexin V positive) (HL-60 cells [7]; 48 h): 18.7%
Average fraction of Annexin V-staining positive cells (total apoptotic cells) (HL-60 cells [7]; 72 h): 23.7%
